Assay results reported in patent publication US20030181527A1, “Novel formulations of alpha-2,4-disulfophenyl-n-tert-butylnitrone” (priority 2000, published 2003).

What was measured:
Format in all cases: physicochemical
[1] = Stability versus concentration, vial size and headspace gas at +40° C. (Table 6); conditions: 400 mg/ml, 20 ml vial
Experimental: For the 10 ml vial size, the fill volume was 10.7 ml; and for the 20 ml vial size, the fill volume was 20.7 ml.

[2] = Effect of concentration on stability, phosphate-buffered solutions at +5° C.; conditions: 50 mM phosphate buffer
Experimental: In a third study aqueous solutions of α-(2,4-disulfophenyl)-N-tert-butylnitrone disodium salt (concentration either 200 mg/ml or 400 mg/ml) buffered with phosphate buffer (50 mM) were dispensed into 10 ml glass vials and stored at +5° C.

[3] = Stability of buffered and unbuffered solutions and concentrates at room temperature
From the text: In a further study the stability of both buffered (sodium hydrogen carbonate) and unbuffered aqueous solutions and concentrates of α-(2,4-disulfophenyl)-N-tert-butylnitrone disodium salt stored at room temperature were compared. […] The buffered solutions show no apparent concentration dependent decomposition due to the short storage time and moderate storage temperature.

[4] = 7.5 mg/ml buffered (sodium hydrogen carbonate), 0 hours
[5] = 7.5 mg/ml buffered (sodium hydrogen carbonate), 48 hours
[6] = 75 mg/ml buffered (sodium hydrogen carbonate), 0 hours
[7] = 75 mg/ml buffered (sodium hydrogen carbonate), 48 hours
[8] = 150 mg/ml buffered (sodium hydrogen carbonate), 0 hours
[9] = 150 mg/ml buffered (sodium hydrogen carbonate), 48 hours

With `CC(C)(C)[N+]([O-])=Cc1ccc(S(=O)(=O)[O-])cc1S(=O)(=O)[O-].[Na+].[Na+]` [α-(2,4-disulfophenyl)-N-tert-butylnitrone disodium salt] the “Amount of Aldehyde (II)” value ([1]; N2 in headspace, initial) was 0.3 w/w %, the “Amount of Aldehyde (II)” value ([1]; air in headspace, 2 months at +40° C.) was 0.7 w/w % and the “Amount of Aldehyde (II)” value ([1]; air in headspace, 3 months at +40° C.) was 0.8 w/w %. For the same molecule, the “Amount of Aldehyde (II)” value ([1]; air in headspace, initial) was 0.3 w/w %, the “Amount of Aldehyde (II)” value ([2]; 200 mg/ml, 0 months) was 0.1 Area % and the pH ([2]; 200 mg/ml, 0 months) was 8.0. For the same molecule, the “Amount of Aldehyde (II)” value ([2]; 200 mg/ml, 6 months) was 0.4 Area %, the pH ([2]; 200 mg/ml, 6 months) was 7.9 and the “Amount of Aldehyde (II)” value ([2]; 200 mg/ml, 12 months) was 0.6 Area %. For the same molecule, the pH ([2]; 200 mg/ml, 12 months) was 7.9, the “Amount of Aldehyde (II)” value ([2]; 200 mg/ml, 18 months) was 0.7 Area % and the pH ([2]; 200 mg/ml, 18 months) was 8.0. For the same molecule, the “Amount of Aldehyde (II)” value ([2]; 400 mg/ml, 0 months) was 0.1 Area %, the pH ([2]; 400 mg/ml, 0 months) was 8.0 and the “Amount of Aldehyde (II)” value ([2]; 400 mg/ml, 6 months) was 0.3 Area %. The pH ([2]; 400 mg/ml, 6 months) was 7.8, the “Amount of Aldehyde (II)” value ([2]; 400 mg/ml, 12 months) was 0.4 Area % and the pH ([2]; 400 mg/ml, 12 months) was 7.8. For the same molecule, the “Amount of Aldehyde (II)” value ([2]; 400 mg/ml, 18 months) was 0.4 Area %, the pH ([2]; 400 mg/ml, 18 months) was 7.9 and the “Amount of Aldehyde (II)” value [3, 4] was 0.6 Area %. For the same molecule, the pH [3, 4] was 8.1, the “Amount of Aldehyde (II)” value [3, 5] was 0.7 Area % and the pH [3, 5] was 8.7. For the same molecule, the “Amount of Aldehyde (II)” value ([3]; 7.5 mg/ml unbuffered, 0 hours) was 1.0 Area %, the pH ([3]; 7.5 mg/ml unbuffered, 0 hours) was 5.8 and the “Amount of Aldehyde (II)” value ([3]; 7.5 mg/ml unbuffered, 48 hours) was 2.4 Area %. The pH ([3]; 7.5 mg/ml unbuffered, 48 hours) was 6.3, the “Amount of Aldehyde (II)” value [3, 6] was 0.6 Area % and the pH [3, 6] was 8.0. The “Amount of Aldehyde (II)” value [3, 7] was 0.7 Area %, the pH [3, 7] was 8.1 and the “Amount of Aldehyde (II)” value ([3]; 75 mg/ml unbuffered, 0 hours) was 1.1 Area %. For the same molecule, the pH ([3]; 75 mg/ml unbuffered, 0 hours) was 6.1, the “Amount of Aldehyde (II)” value ([3]; 75 mg/ml unbuffered, 48 hours) was 1.9 Area % and the pH ([3]; 75 mg/ml unbuffered, 48 hours) was 6.7. The “Amount of Aldehyde (II)” value [3, 8] was 0.6 Area %, the pH [3, 8] was 7.9 and the “Amount of Aldehyde (II)” value [3, 9] was 0.7 Area %. For the same molecule, the pH [3, 9] was 7.8, the “Amount of Aldehyde (II)” value ([3]; 150 mg/ml unbuffered, 0 hours) was 1.0 Area % and the pH ([3]; 150 mg/ml unbuffered, 0 hours) was 6.1. The “Amount of Aldehyde (II)” value ([3]; 150 mg/ml unbuffered, 48 hours) was 1.7 Area % and the pH ([3]; 150 mg/ml unbuffered, 48 hours) was 6.7.
